# Measured values reported in patent US20250353873A1, “COMPOUNDS AND METHODS FOR MODULATING APOE EXPRESSION” (Ionis Pharmaceuticals, Inc., priority 2024, published 2025).
# Marks after values point to notes of the source that are not given here. Strand notation (5' to 3'): a small letter for the sugar, then the base; units joined by * are phosphorothioate-linked, units joined directly phosphodiester-linked; [ ] holds rarer units or linkages, { } end groups; capitals alone tell only the bases. [ms] = mesyl phosphoramidate linkage; e = 2'-O-(2-methoxyethyl) (MOE); k = constrained ethyl (cEt); [5mC] = 5-methylcytosine; d = 2'-deoxy (DNA)
# Columns and labels:
# human APOE RNA [1] = experiment: Activity in APOE 1549 knock-in mice, single ICV bolus, 2 weeks (Example 7); format: in vivo; conditions: single ICV bolus of 300 μg, two weeks post treatment, Table 16
# Description: Modified oligonucleotides described above were tested in APOE knock-in mice.
# APOE knock-in mice (model 41549) were obtained from Taconic Biosciences. APOE knock-in mice were divided into groups of 2 mice each. Each mouse received a single intracerebroventricular (ICV) bolus of 300 μg of modified oligonucleotide. A group of 4 mice received a single ICV bolus with PBS as a negative control.
# Two weeks post treatment, mice were sacrificed and RNA was extracted from cortical brain tissue and spinal cord for quantitative real-time RT-PCR analysis of RNA expression of APOE using primer probe set RTS3073 (described herein above). APOE RNA levels were normalized to mouse Ppia. Mouse Ppia was amplified using primer probe set m_cyclo24 (forward sequence TCGCCGCTTGCTGCA, designated herein as SEQ ID NO: 16; reverse sequence ATCGGCCGTGATGTCGA, designated herein as SEQ ID NO: 17; probe sequence […], designated herein as SEQ ID NO: 18). Results are presented as percent human APOE RNA relative to the amount of human APOE RNA in PBS treated animals, (% control). Each experiment is identified in separate tables below.
# human APOE RNA [2] = experiment: Activity in APOE C57BL/6NTac-Apoeem7250 knock-in mice, single ICV bolus, 8 weeks (Example 11); format: in vivo; conditions: single ICV bolus 300 μg, 8 weeks post treatment, normalized to mouse Ppia
# In short: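 Cortical and spinal cord human APOE RNA quantified by RT-qPCR 8 weeks after a single 300 μg ICV dose in knock-in mice, Ppia-normalized. Values are percent of levels in PBS-treated animals.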
# human APOE RNA [3] = experiment: Duration of action study in APOE C57BL/6NTac-Apoeem7250 knock-in mice (Example 18); format: in vivo; conditions: 300 μg ICV
# Description: Modified oligonucleotides described above were tested in the APOE C57BL/6NTac-Apoeem7250 knock-in model (described above).
# Each mouse received a single intracerebroventricular (ICV) bolus of 300 μg of modified oligonucleotide. A group of 4-6 mice received a single ICV bolus with PBS as a negative control.
# Mice were sacrificed at various timepoints as indicated in the table below and RNA was extracted from cortical brain tissue and spinal cord for quantitative real-time RT-PCR analysis of RNA expression of APOE using primer probe set RTS3073 (described herein above). APOE RNA levels were normalized to mouse Ppia. Mouse Ppia was amplified using primer probe set m_cyclo24 (described herein above). Results are presented as percent human APOE RNA relative to the amount of human APOE RNA in PBS treated animals, (% control). Each experiment is identified in separate tables below.
# human APOE RNA [4] = experiment: Potency (dose response, ED50) in APOE C57BL/6NTac-Apoeem7250 knock-in mice, 4 weeks (Example 14); format: in vivo
# Description: Modified oligonucleotides described above were tested in the APOE C57BL/6NTac-Apoeem7250 knock-in mouse model described above.
# APOE C57BL/6NTac-Apoeem7250 knock-in mice were divided into groups of 3-4 mice each. A group of 3-4 mice received a single ICV bolus with PBS as a negative control.
# Four weeks post treatment, mice were sacrificed, and RNA was extracted from cortical brain tissue and spinal cord for quantitative real-time RT-PCR analysis of RNA expression of […] using human primer probe set RTS3073 (described herein above). APOE RNA levels were normalized to mouse Ppia. Mouse Ppia was amplified using primer probe set m_cyclo24 (described herein above). Results are presented as percent human APOE RNA relative to the amount of APOE RNA in PBS treated animals, (% control). N.C. indicates values that were not calculated. Each experiment is identified in separate tables below.
# The half maximal effective dose (ED50) of each modified oligonucleotide was calculated using GraphPad Prism 10 software (GraphPad Software, San Diego, CA).
# human APOE RNA [5] = experiment: Dose-dependent inhibition of human APOE RNA in HepG2 cells, electroporation, 50,000 cells per well, RT-PCR normalized to GAPDH (Example 4, Tables 8-10); format: cell-based; conditions: HepG2 cells, electroporation, Table 8
# In short: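 Readout is percent APOE RNA versus untreated controls, measured by RT-PCR (primer probe set RTS3073) and normalized to human GAPDH. Modified oligonucleotides were delivered by electroporation at varying doses into HepG2 cells plated at 50,000 per well.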
# human APOE RNA [6] = experiment: Activity in APOE C57BL/6NTac-Apoeem7250 knock-in mice, single ICV bolus, 4 weeks (Example 10); format: in vivo; conditions: single ICV bolus 300 μg, 4 weeks post treatment, normalized to mouse Ppia
# In short: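 Human APOE RNA, quantified by real-time RT-PCR with RTS3073 and normalized to mouse Ppia, was read in cortical brain and spinal cord 4 weeks post dosing. Dosing was a single ICV bolus of 300 μg per knock-in mouse; values are % of PBS-treated animals.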
# human APOE RNA [7] = experiment: Activity in APOE C57BL/6NTac-Apoeem7250 knock-in mice, single ICV bolus, 20 weeks (Example 13); format: in vivo; conditions: single ICV bolus 300 μg, 20 weeks post treatment, normalized to mouse Ppia
# In short: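 Cortical and spinal cord RNA was assayed by real-time RT-PCR for human APOE, normalized to mouse Ppia and reported as percent of PBS controls. Tissue was taken twenty weeks after one 300 μg intracerebroventricular bolus in APOE knock-in mice, 4 per group.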
# human APOE RNA [8] = experiment: Activity in APOE C57BL/6NTac-Apoeem7250 knock-in mice, single ICV bolus, 16 weeks (Example 12); format: in vivo; conditions: single ICV bolus 300 μg, 16 weeks post treatment, normalized to mouse Ppia
# In short: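 A single 300 μg intracerebroventricular dose was given, with PBS-treated mice as reference; cortical and spinal cord tissue was taken 16 weeks later. RT-qPCR quantified human APOE RNA, Ppia-normalized, expressed relative to PBS animals (% control).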
substance,measurement,setting,value
"1601944: 6-10-4 MOE gapmer CTGGTCTTCTCTTATCTCCC, linkages sooooossssssssssoss (antisense e[5mC]*eTeGeGeTe[5mC]dT*dT*d[5mC]*dT*d[5mC]*dT*dT*dA*dT*d[5mC]*eTe[5mC]*e[5mC]*e[5mC]) [compound 1601944]",APOE RNA (% control) Cortex,human APOE RNA [1],109 % control
same,APOE RNA (% control) Spinal Cord,human APOE RNA [1],95 % control
"1601955: 6-10-4 MOE gapmer GCTAATTCAGTCCTCATTTT, linkages sooooossssssssssoss (antisense eG*e[5mC]eTeAeAeTdT*d[5mC]*dA*dG*dT*d[5mC]*d[5mC]*dT*d[5mC]*dA*eTeT*eT*eT) [compound 1601955]",APOE RNA (% control) Cortex,human APOE RNA [1],98 % control
same,APOE RNA (% control) Spinal Cord,human APOE RNA [1],111 % control
"1810064: mixed MOE/cEt gapmer CTTGGTGAATCTTTATTAAAC, sugar eeeeekddddddddddeeeee, linkages ssoooszzzssssszsooss (e[5mC]*eT*eTeGeGkT*dG[ms]dA[ms]dA[ms]dT*d[5mC]*dT*dT*dT*dA[ms]dT*eTeAeA*eA*e[5mC]) [compound 1810064]",APOE RNA (% control) Cortex,human APOE RNA [2],23 % control
same,APOE RNA (% control) Spinal Cord,human APOE RNA [2],15 % control
same,APOE RNA (% control) Cortex,human APOE RNA [3]; 28 days post-dose,40 % control
same,APOE RNA (% control) Cortex,human APOE RNA [3]; 112 days post-dose,62 % control
same,APOE RNA (% control) Cortex,human APOE RNA [3]; 140 days post-dose,63 % control
same,APOE RNA (% control) Spinal Cord,human APOE RNA [3]; 28 days post-dose,22 % control
same,APOE RNA (% control) Spinal Cord,human APOE RNA [3]; 112 days post-dose,31 % control
same,APOE RNA (% control) Spinal Cord,human APOE RNA [3]; 140 days post-dose,48 % control
1809636 (kA*e[5mC]eTeT*eG*kG*dT*dG[ms]dA[ms]dA[ms]dT*d[5mC]*dT*dT*dT*dA[ms]kT*kT*eA*kA; antisense) [Compound 1809636],APOE RNA (% control) Cortex,human APOE RNA [2],16 % control
same,APOE RNA (% control) Spinal Cord,human APOE RNA [2],11 % control
same,APOE RNA (% control) Cortex,human APOE RNA [3]; 56 days post-dose,32 % control
same,APOE RNA (% control) Cortex,human APOE RNA [3]; 112 days post-dose,33 % control
same,APOE RNA (% control) Cortex,human APOE RNA [3]; 224 days post-dose,65‡ % control
same,APOE RNA (% control) Spinal Cord,human APOE RNA [3]; 56 days post-dose,14 % control
same,APOE RNA (% control) Spinal Cord,human APOE RNA [3]; 112 days post-dose,13 % control
same,APOE RNA (% control) Spinal Cord,human APOE RNA [3]; 224 days post-dose,41‡ % control
1778154: modified oligonucleotide complementary to human APOE RNA (e[5mC]*eT*eTeGeGeT*dG[ms]dA[ms]dA*dT*d[5mC]*dT*dT*dT*dA*dT*kTkAeA*eA; antisense) [compound 1778154],APOE RNA (% control) Cortex,"human APOE RNA [4]; cortex, ICV dose 10 μg",89 % control
same,APOE RNA (% control) Cortex,"human APOE RNA [4]; cortex, ICV dose 30 μg",89 % control
same,APOE RNA (% control) Cortex,"human APOE RNA [4]; cortex, ICV dose 100 μg",70 % control
same,APOE RNA (% control) Cortex,"human APOE RNA [4]; cortex, ICV dose 300 μg",56 % control
same,APOE RNA (% control) Cortex,"human APOE RNA [4]; cortex, ICV dose 700 μg",27 % control
same,ED 50 (μg) Cortex,"human APOE RNA [4]; cortex, single ICV bolus, GraphPad Prism 10",279.4 µg
same,APOE RNA (% control) Spinal Cord,"human APOE RNA [4]; spinal cord, ICV dose 10 μg",105 % control
same,APOE RNA (% control) Spinal Cord,"human APOE RNA [4]; spinal cord, ICV dose 30 μg",137 % control
same,APOE RNA (% control) Spinal Cord,"human APOE RNA [4]; spinal cord, ICV dose 100 μg",38 % control
same,APOE RNA (% control) Spinal Cord,"human APOE RNA [4]; spinal cord, ICV dose 300 μg",43 % control
same,APOE RNA (% control) Spinal Cord,"human APOE RNA [4]; spinal cord, ICV dose 700 μg",47 % control
same,ED 50 (μg) Spinal Cord,"human APOE RNA [4]; spinal cord, single ICV bolus, GraphPad Prism 10",243.1 µg
same,APOE RNA (% UTC) 5 nM,"human APOE RNA [5]; 24-hour treatment, 5 nM",101 % UTC
same,APOE RNA (% UTC) 13 nM,"human APOE RNA [5]; 24-hour treatment, 13 nM",97 % UTC
same,APOE RNA (% UTC) 33 nM,"human APOE RNA [5]; 24-hour treatment, 33 nM",91 % UTC
same,APOE RNA (% UTC) 82 nM,"human APOE RNA [5]; 24-hour treatment, 82 nM",98 % UTC
same,APOE RNA (% UTC) 205 nM,"human APOE RNA [5]; 24-hour treatment, 205 nM",76 % UTC
same,APOE RNA (% UTC) 512 nM,"human APOE RNA [5]; 24-hour treatment, 512 nM",58 % UTC
same,"APOE RNA (% UTC) 1,280 nM","human APOE RNA [5]; 24-hour treatment, 1,280 nM",47 % UTC
same,"APOE RNA (% UTC) 3,200 nM","human APOE RNA [5]; 24-hour treatment, 3,200 nM",22 % UTC
same,"APOE RNA (% UTC) 8,000 nM","human APOE RNA [5]; 24-hour treatment, 8,000 nM",35 % UTC
same,"APOE RNA (% UTC) 20,000 nM","human APOE RNA [5]; 24-hour treatment, 20,000 nM",8 % UTC
same,IC50,"human APOE RNA [5]; reduction of human APOE RNA, 24-hour treatment",1080 nM
same,APOE RNA (% control) Cortex,human APOE RNA [6]; cortex,30 % control
same,APOE RNA (% control) Spinal Cord,human APOE RNA [6]; spinal cord,44 % control
same,APOE RNA (% control) Cortex,human APOE RNA [7]; cortex,82 % control
same,APOE RNA (% control) Spinal Cord,human APOE RNA [7]; spinal cord,46 % control
same,APOE RNA (% control) Cortex,human APOE RNA [2],29 % control
same,APOE RNA (% control) Spinal Cord,human APOE RNA [2],32 % control
same,APOE RNA (% control) Cortex,human APOE RNA [8]; cortex,50 % control
same,APOE RNA (% control) Spinal Cord,human APOE RNA [8]; spinal cord,29 % control
1809637 (kA*e[5mC]eTeT*eG*kG*dT*dG[ms]dA[ms]dA[ms]dT*d[5mC]*dT*dT*dT*dA[ms]kT*kT*kA*kA; antisense) [Compound 1809637],APOE RNA (% control) Cortex,human APOE RNA [2],20 % control
same,APOE RNA (% control) Spinal Cord,human APOE RNA [2],9 % control
same,APOE RNA (% control) Cortex,human APOE RNA [3]; 56 days post-dose,26‡ % control
same,APOE RNA (% control) Cortex,human APOE RNA [3]; 112 days post-dose,42 % control
same,APOE RNA (% control) Cortex,human APOE RNA [3]; 224 days post-dose,58‡ % control
same,APOE RNA (% control) Spinal Cord,human APOE RNA [3]; 56 days post-dose,19 % control
same,APOE RNA (% control) Spinal Cord,human APOE RNA [3]; 112 days post-dose,17 % control
same,APOE RNA (% control) Spinal Cord,human APOE RNA [3]; 224 days post-dose,36‡ % control
